In patent US9732087B2, “Diamino-pyridine, pyrimidine, and pyridazine modulators of the histamine H4 receptor” (JANSSEN PHARMACEUTICA NV, priority 2008, dated 2017):
Counter-ions that a name gives are not always drawn. Like-named read-outs stand apart in the source and are kept apart here.

Experiments:
[1] = tested on: diabetes induced obese (DIO) mouse model; test: Insulin resistance in diabetes induced obese (DIO) mouse model; type: in vivo
Method: Insulin Resistance in Diabetes Induced Obese Mouse Model.
The effect of administration of an H4R antagonist, 5-fluoro-4-methyl-2-{5-methyl-2-[4-(1-methyl-piperidin-4-yl)-butoxy]-pyridin-4-yl}-1H-benzoimidazole (U.S. Pat. No. 7,432,378, Example 165), was tested in the treatment of insulin resistance in the diabetes induced obese (DIO) mouse model. […] Our data support the claim that H4R antagonists have beneficial properties towards the treatment of type 2 diabetes and related metabolic diseases.

human H4 receptor [2] = target: T1, human H4 receptor (Homo sapiens (Human), UniProt Q9H3N8); test: Binding assay on recombinant human histamine H4 receptor ([3H]histamine competition, SK-N-MC cell membranes); conditions: [3H]histamine 10 nM, average of results
How it was run: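 Membranes from SK-N-MC cells stably or transiently transfected with human H4 receptor, prepared by homogenization and 30,000 g centrifugation in Tris/EDTA. Bound [3H]histamine separated by rapid filtration on PEI-treated GF/C filters, washed with ice-cold Tris/EDTA, counted by scintillation. '>' values denote highest concentration tested.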

human H4 receptor [3] = target: T1, human H4 receptor; test: cell-based; type: cell-based
Method: SK-N-MC cell lines were created that express a reporter gene construct and the human H4 receptor full-coding region (NCBI accession No. AF312230). The reporter gene was β-galactosidase under the control of cyclic AMP-responsive elements. Cells were plated in 96-well plates the night before the assay. Histamine was used as the agonist for all assay. For the H4 receptor, the inhibition of forskolin-stimulated cAMP production was measured. For determination of antagonist activity, compounds were added 10 min prior to the addition of agonist, which was added directly to the cell medium. Forskolin (5 μM final concentration) was added 10 min after the addition of histamine. Cells were returned to the incubator for 6 h at 37° C. The medium was then aspirated, and the cells were washed with […] of phosphate-buffered saline (PBS). Cells were lysed with 25 μL of 0.1X assay buffer (10 mM sodium phosphate, pH 8, 0.2 mM MgSO4, and 0.01 mM MnCl2) and incubated at rt for 10 min. Cells were then incubated for 10 min with 100 μL of 1X assay buffer containing 0.5% (v/v) Triton X-100 and 40 mM β-mercaptoethanol. Color was developed using 25 μL of 1 mg/mL substrate solution (chlorophenol red β-D-galactopyranoside; Roche Applied Science, Indianapolis, Ind.). Color was quantitated on a microplate reader by measuring the absorbance at 570 nm. The data from each concentration-response curve were fitted to a sigmoidal curve to obtain the maximum response, Hill coefficient, and EC50 using Prism (GraphPad Software, San Diego, Calif.). Dose ratios were calculated from individual concentration-response curves of agonists at three to five antagonist concentrations. Apparent pA2 values were calculated using a Schild plot (ND=not determined).

mast cells [4] = conditions: cited from earlier work
[5] = tested on: mouse models of asthma, arthritis and dermatitis; conditions: in vivo; cited from earlier work
mast cells [6] = conditions: cited from earlier work; remark: listed apart in the source
eosinophils = conditions: cited from earlier work
H4 receptor (H4R) = H4 receptor (H4R) (Homo sapiens (Human), UniProt Q9H3N8); conditions: in vitro; cited from earlier work
[7] = tested on: lipopolysaccharide (LPS)-induced tumor necrosis factor alpha (TNF-α) production; conditions: in vivo; cited from earlier work
[8] = membranes harvested with cell harvester, read-out: Cell Harvester Ki
[9] = apparent pA2 from Schild plot, antagonism of histamine inhibition of forskolin-stimulated cAMP, read-out: pA2 (converted)
[10] = apparent pA2 from Schild plot, antagonism of histamine inhibition of forskolin-stimulated cAMP
[11] = membranes harvested with 96 well Brandel system, read-out: Brandel Ki

| Ki (human H4 receptor [2]; [8]) | Kb (human H4 receptor [3]; [9]) | Compound | further results |
| --- | --- | --- | --- |
| – | – | Cc1cnc(OCCCCC2CCN(C)CC2)cc1-c1nc2c(C)c(F)ccc2[nH]1 [5-Fluoro-4-methyl-2-{5-methyl-2-[4-(1-methyl-piperidin-4-yl)-butoxy]-pyridin-4-yl}-1H-benzoimidazole] | MCP-1 and TNF-α expression [1]: reduced; fat content in liver [1]: significantly reduced; fed and fasted glucose levels ([1]; 20 mg/kg PO): significantly reduced; insulin sensitivity as determined by an insulin tolerance test ([1]; 20 mg/kg PO): improved |
| 7.26 nM | 2 nM | CCCNc1cc(N2CC[C@@H](NC)C2)ccn1 [Example 3, 4-[(3R)-3-(Methylamino)pyrrolidin-1-yl]-N-propylpyridin-2-amine dihydrochloride] | – |
| 4.9 nM | 1.38 nM | CN[C@@H]1CCN(c2ccnc(NCC3CC3)c2)C1 [Example 4, N-(Cyclopropylmethyl)-4-[(3R)-3-(methylamino)pyrrolidin-1-yl]pyridin-2-amine ditrifluoroacetate] | – |
| 19.2 nM | – | CN[C@@H]1CCN(c2ccnc(NC(C)C)c2)C1 [Example 12, 4-[(3R)-3-(Methylamino)pyrrolidin-1-yl]-N-(1-methylethyl)pyridin-2-amine] | pA2 (human H4 receptor [3]; [10]): 8.5 |
| – | 20 nM | CC(C)CNc1cc(N2CC[C@@H](N)C2)ccn1 [Example 20, 4-[(3R)-3-Aminopyrrolidin-1-yl]-N-(2-methylpropyl)pyridin-2-amine dihydrochloride] | Ki (human H4 receptor [2]; [11]): 3.5 nM |
| 15 nM | – | CN[C@@H]1CCN(c2cnnc(NCC(C)C)c2)C1 [Example 95, 5-[(3R)-3-(Methylamino)pyrrolidin-1-yl]-N-(2-methylpropyl)pyridazin-3-amine] | Ki (human H4 receptor [2]; [11]): 15 nM; pA2 (human H4 receptor [3]; [10]): 7.8 |
| 7.14 nM | – | CN[C@H]1CCN(c2ccnc(NC3CC4CCC3C4)n2)C1 (stereo partly drawn) [Example 162, N-Bicyclo[2.2.1]hept-2-yl-4-[(3S)-3-(methylamino)pyrrolidin-1-yl]pyrimidin-2-amine] | pA2 (human H4 receptor [3]; [10]): 8.1 |
| 16 nM | 12.6 nM | CN[C@@H]1CCN(c2ccnc(NC[C@H]3CC[C@H]4C[C@@H]3C4(C)C)n2)C1 [Example 193, N-{[(1S,2S,5S)-6,6-Dimethylbicyclo[3.1.1]hept-2-yl]methyl}-4-[(3R)-3-(methylamino)pyrrolidin-1-yl]pyrimidin-2-amine] | – |
| 24.3 nM | 31.6 nM | CN[C@@H]1CCN(c2ccnc(NC[C@H]3CC[C@H]4C[C@@H]3C4(C)C)c2)C1 [Example 217, N-{[(1S,2S,5S)-6,6-Dimethylbicyclo[3.1.1]hept-2-yl]methyl}-4-[(3R)-3-(methylamino)pyrrolidin-1-yl]pyridin-2-amine] | – |
| 6.48 nM | 25.1 nM | CN[C@@H]1CCN(c2ccnc(NCC34CC5CC(CC(C5)C3)C4)c2)C1 [Example 220, Adamantan-1-ylmethyl-[4-(3R)-(3-methylamino-pyrrolidin-1-yl)-pyridin-2-yl]-amine] | – |
| 8.41 nM | – | CN[C@H]1CCN(c2ccnc(NC3CC4CCC3C4)c2)C1 (stereo partly drawn) [Example 231, N-Bicyclo[2.2.1]hept-2-yl-4-[(3S)-3-(methylamino)pyrrolidin-1-yl]pyridin-2-amine] | pA2 (human H4 receptor [3]; [10]): 9 |
| 18.4 nM | 79.4 nM | c1nnc(NC2CC3CCC2C3)cc1N1CCCNCC1 (stereo not shown) [Example 308, N-Bicyclo[2.2.1]hept-2-yl-5-(1,4-diazepan-1-yl)pyridazin-3-amine] | – |
| 96.7 nM | 39.8 nM | CNC1CN(c2cnnc(NC3CC4CCC3C4)c2)C1 (stereo not shown) [Example 331, N-Bicyclo[2.2.1]hept-2-yl-5-[3-(methylamino)azetidin-1-yl]pyridazin-3-amine] | – |
| 54.3 nM | 63.1 nM | CN[C@H]1CCN(c2cnnc(NC3CCCC3)c2)C1 [Example 380, N-Cyclopentyl-5-[(3S)-3-(methylamino)pyrrolidin-1-yl]pyridazin-3-amine] | – |
| 18.3 nM | 7.94 nM | CN[C@@H]1CCN(c2cnnc(NCC(C)(C)C)c2)C1 [Example 392, N-(2,2-Dimethylpropyl)-5-[(3R)-3-(methylamino)pyrrolidin-1-yl]pyridazin-3-amine] | – |
| > 10000 nM | – | CN1CCN(c2cnnc(NCc3ccccc3)c2)CC1 [Example 410, N-Benzyl-5-(4-methylpiperazin-1-yl)pyridazin-3-amine] | – |
| 5.6 nM | – | CN[C@@H]1CCN(c2cnnc(NC3CCCC3)c2)C1 [Example 412, N-cyclopentyl-5-[(3R)-3-(methylamino)pyrrolidin-1-yl]pyridazin-3-amine] | – |
| – | – | Cc1cc(C)c2nc(-c3cnc(NCCCC4CCN(C)CC4)nc3C)[nH]c2c1 [[5-(4,6-dimethyl-1H-benzoimidazol-2-yl)-4-methyl-pyrimidin-2-yl]-[3-(1-methyl-piperidin-4-yl)-propyl]-amine] | chemotaxis of mast cells (mast cells [4]): inhibited; inflammation in mouse models of asthma, arthritis and dermatitis [5]: reduced inflammation; IL-6 production in mast cells (mast cells [6]): inhibited; histamine-induced shape change of eosinophils (eosinophils): inhibited; selectivity over other histamine receptors (H4 receptor (H4R)): greater than 25 fold; LPS-induced TNF-α production and other cytokines [7]: inhibited |

| Compound | Ki (human H4 receptor [2]; [8]) | Kb (human H4 receptor [3]; [9]) | further results |
| --- | --- | --- | --- |
| CC(C)CNc1cc(N2C[C@H]3CCN[C@H]3C2)ccn1 [Example 257, 4-[(3aR,6aR)-Hexahydropyrrolo[3,4-b]pyrrol-5(1H)-yl]-N-(2-methylpropyl)pyridin-2-amine] | 64.5 nM | – | Kb (human H4 receptor [3]): 50.1 nM |
